Legend:
[1] = molecular target: T1, LnmJ-SH (Streptomyces atroolivaceus, UniProt Q8GGP2); experiment: pyruvate release, OPD derivatization, HPLC; format: biochemical; settings: 0.2 mM PLP, 20 mM KCl, 28 °C
T1 construct: E. coli, plasmid pBS3109, published procedure; PLP-dependent

[2] = system: T2, GnmT-SH; experiment: pyruvate release, OPD derivatization, HPLC; format: biochemical, Streptomyces sp. CB01883; settings: 0.2 mM PLP, 20 mM KCl, 28 °C
T2 construct: N-terminal His6 tag (same procedure as GnmP), E. coli, plasmid pBS21022; PLP-dependent

[3] = system: T3, WsmR-SH; experiment: pyruvate release, OPD derivatization, HPLC; format: biochemical, Streptomyces sp. CB02120-2; settings: 0.2 mM PLP, 20 mM KCl, 28 °C
T3 construct: N-terminal His6 tag (same procedure as GnmP), E. coli, plasmid pBS22010; PLP-dependent

[4] = system: T4, GnmP; experiment: HPLC of S-methylated product; format: biochemical, Streptomyces sp. CB01883; settings: 2 mM SAM; 50 mM sodium phosphate pH 8.0; 28 °C
T4 construct: N-terminal His6-tagged GnmP, E. coli BL21(DE3), plasmid pBS21021

[5] = system: T4, GnmP; experiment: HPLC of methylated product […], WsmR-SH coupled; format: biochemical, Streptomyces sp. CB01883; settings: 7 generated in situ from 9 as surrogate substrate by 220 µM WsmR-SH; 2 mM SAM; 50 mM sodium phosphate pH 8.0; 28 °C; methods print substrate range in mM

T1 sequence (Q8GGP2 entry or part of it): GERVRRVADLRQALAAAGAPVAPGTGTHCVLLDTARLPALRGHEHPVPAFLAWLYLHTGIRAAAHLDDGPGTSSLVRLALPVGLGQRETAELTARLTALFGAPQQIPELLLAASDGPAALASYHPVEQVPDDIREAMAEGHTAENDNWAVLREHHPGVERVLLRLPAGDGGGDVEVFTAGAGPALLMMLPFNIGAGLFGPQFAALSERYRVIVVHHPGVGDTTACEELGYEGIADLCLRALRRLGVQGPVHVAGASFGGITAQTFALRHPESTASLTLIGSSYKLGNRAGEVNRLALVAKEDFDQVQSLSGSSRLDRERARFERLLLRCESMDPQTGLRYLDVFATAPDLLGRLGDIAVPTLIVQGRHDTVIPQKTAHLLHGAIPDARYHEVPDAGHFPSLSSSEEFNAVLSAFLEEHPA

Compound	Km ([1]; 50 mM sodium phosphate pH 7.2) [mM]	Km ([2]; 50 mM sodium phosphate pH 7.2) [mM]	Km ([3]; 50 mM sodium phosphate pH 7.2) [mM]	other results
CC(=O)NCCSC(=O)CC(C)(C)SC[C@H](N)C(=O)O [compound 16, N-acetylcysteamine thioester (SNAC) of a truncated L-cysteine-polyketide adduct]	69 ± 11	41 ± 5	54 ± 10	
CC(=O)NCCSC(=O)CC(C)(C)SSC[C@H](N)C(=O)O [compound 17, SNAC of a truncated L-thiocysteine-polyketide adduct]	9 ± 0.9	7.7 ± 1.2	6.6 ± 0.7	
GNM B [compound 4]				Km [4]: 0.0121 ± 0.0022 mM
GNM P [compound 7]				Km [5]: 0.00245 ± 0.00041 mM
L-cysteinyl-GNM B adduct [compound 9]				Km ([1]; Tris-HCl pH 8.5): 7.04 ± 0.84 mM; Km ([2]; 50 mM sodium phosphate pH 8.0): 3.2 ± 0.3 mM; Km ([3]; 50 mM sodium phosphate pH 8.0): 1.45 ± 0.12 mM
